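Tested at 5 concentrations; 48 h exposure; 96-well plates; endpoints linearly interpolated, else capped at highest concentration. The concentration for 50% growth inhibition is given as GI50.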 Active and inactive are the calls of the source. Cut-off read from the data, not from the text of the source: active = GI50 up to about 1.1 µM and inactive = higher.
Legend:
Test in all cases: growth of human tumour cells (NCI), 48 h
[1] = system: HOP-92
[2] = system: TK-10
[3] = system: A498
[4] = system: HCC 2998
[5] = system: HCT-116
[6] = system: HOP-62
[7] = system: Malme-3M
[8] = system: MDA-MB-231
[9] = system: SF-295
[10] = system: BT-549
[11] = system: SR
[12] = system: UO-31
[13] = system: U-251
[14] = system: SF-268
[15] = system: CCRF-CEM
[16] = system: RXF 393
[17] = system: Hs-578T
[18] = system: HT-29
[19] = system: DU-145
[20] = system: PC-3
[21] = system: SK-OV-3
[22] = system: 786-0
[23] = system: T47D
[24] = system: CAKI-1
[25] = system: SK-MEL-5
[26] = system: IGROV-1
[27] = system: HCT-15
[28] = system: COLO 205
[29] = system: SW-620
[30] = system: MCF7
[31] = system: M14
[32] = system: NCI-H522
[33] = system: EKVX
[34] = system: RPMI-8226
[35] = system: OVCAR-4
[36] = system: MOLT-4
[37] = system: MDA-MB-435
[38] = system: SK-MEL-2
[39] = system: SK-MEL-28
[40] = system: LOX IMVI
[41] = system: OVCAR-3
[42] = system: SNB-75
[43] = system: OVCAR-8
[44] = system: SN12C
[45] = system: MDA-N
[46] = system: OVCAR-5
[47] = system: A549
[48] = system: NCI-H23
[49] = system: UACC-257
[50] = system: SF-539
[51] = system: NCI-H226
[52] = system: UACC-62
[53] = system: HL-60
[54] = system: KM12
[55] = system: NCI/ADR-RES
[56] = system: K562
[57] = system: ACHN
[58] = system: NCI-H460
[59] = system: SNB-19

Measured: GI50

Cc1sccc1C(=S)Nc1ccc(Cl)c(/C=N/OC(C)(C)C)c1
15 µM: [27]
inactive: [1] 13.9 µM | [2] 19.1 µM | [3] 23.8 µM | [4] 16.4 µM | [5] 14.1 µM | [6] 16 µM | [7] 15.1 µM | [8] 13.3 µM | [9] 16.7 µM | [10] 17.7 µM | [11] 17.6 µM | [12] 12.5 µM | [13] 21.6 µM | [14] 18.3 µM | [15] 21.3 µM | [16] 17.2 µM | [17] 22.3 µM | [18] 14.3 µM | [19] 14.6 µM | [20] 15.4 µM | [21] 21.9 µM | [22] 21.1 µM | [23] 10.6 µM | [24] 12 µM | [25] 13.2 µM | [26] 13.5 µM | [28] 13.9 µM | [29] 37.9 µM | [30] 11.8 µM | [31] 17.9 µM | [32] 12 µM | [33] 15.8 µM | [34] 7.31 µM | [35] 15.2 µM | [36] 7.6 µM | [37] 21.7 µM | [38] 15.5 µM | [39] 26.6 µM | [40] 26.6 µM | [41] 13.9 µM | [42] 21.1 µM | [43] 17.1 µM | [44] 12.5 µM | [45] 13.3 µM | [46] 19.3 µM | [47] 20.2 µM | [48] 15.4 µM | [49] 17 µM | [50] 31.5 µM | [51] 13.9 µM | [52] 16.6 µM | [53] 16.9 µM | [54] 13.2 µM | [55] 17.8 µM

CC(C)C(Br)CC/C(CBr)=C(\Cl)CCl (centres undefined)
inactive: [1] 2.06 µM | [2] 7.93 µM | [3] 18.6 µM | [4] 13.4 µM | [5] 2 µM | [6] 16.3 µM | [7] 5.37 µM | [8] 2.64 µM | [9] 15.1 µM | [10] 1.78 µM | [12] 6.71 µM | [13] 6.25 µM | [14] 4.37 µM | [16] 1.81 µM | [17] 3.11 µM | [18] 2.07 µM | [19] 12.6 µM | [20] 6.08 µM | [21] 2.94 µM | [22] 1.81 µM | [23] 1.63 µM | [24] 4.98 µM | [25] 1.79 µM | [26] 1.89 µM | [28] 3.4 µM | [29] 1.82 µM | [30] 6.15 µM | [31] 1.79 µM | [33] 17.9 µM | [34] 2 µM | [35] 2.5 µM | [37] 2.35 µM | [38] 2.19 µM | [39] 2.83 µM | [41] 3.3 µM | [57] 15 µM | [42] 5.19 µM | [43] 3.1 µM | [44] 2.99 µM | [45] 1.85 µM | [46] 10.4 µM | [47] 16.3 µM | [58] 12.5 µM | [48] 3.19 µM | [49] 3.03 µM | [50] 3.59 µM | [51] 2.75 µM | [52] 2.49 µM | [54] 5.61 µM | [59] 16.9 µM | [55] 3.33 µM
2.11 µM: [27]
active: [11] 0.598 µM | [15] 0.135 µM | [32] 0.689 µM | [56] 0.682 µM | [36] 0.589 µM | [40] 0.355 µM | [53] 0.585 µM
